Converted amounts (≈) assume the structure as drawn.
Assays:
[1] = tested on: Herpes simplex type 1 virus (HFEM strain); test: Plaque reduction test in Vero cells infected with Herpes simplex type 1 virus; type: cell-based; details: Human alphaherpesvirus 1, 144 h, concentration causing a 50% reduction in the number of virus plaques formed, agarose overlay, 37°C for 6 days, read-out: PDD50 (the source's name)
Experimental: (§1) Vero (African Green Monkey Kidney) cells were grown to confluence in 6 well multidishes, each well being 3.5 cm in diameter'. The cells were incubated with Herpes simplex type 1 virus (HFEM strain) and overlaid with 0.5 mL of 0.9% agarose (w/v) in maintenance medium containing the test compound at a range of concentrations from […] in half-log dilution steps. The virus infected cultures were then incubated at 37°C for 6 days before fixing in 4% formaldehyde solution and staining with carbolfuchsin. The dishes were then examined to find that concentration of test compound causing a 50% reduction in the number of virus plaques formed (PDD50 value) and the minimum concentration of test compound which killed the cell monolayer, leaving a clear zone devoid of cells and virus plaques (MTD).

[2] = Toxicity to the cell monolayer in the plaque reduction test (MTD); type: cell-based, African Green Monkey; details: monkey, vero cells; minimum concentration which killed the cell monolayer; virus infected Vero cultures, 37°C for 6 days
Experimental: as §1

O=c1nc2n(cc1/C=C/Br)[C@H]1C[C@H](O)[C@@H](CO2)O1 [1 (b), 2,5'-Anhydro-E-5-(2-bromovinyl)-2'-deoxyuridine]
IC50 [1]: 2.8 mg/L (≈ 8.89 µM)
MCC at 144 h [2]: > 50 µg/mL

CC(=O)OC1CC2OC1COc1nc(=O)c(C=CBr)cn12 (stereo not shown) [2 (b), 3'-0-Acetyl-2,5'-anhydro-E-5-(2-bromovinyl)-2'-deoxyuridine]
IC50 [1]: 13.5 mg/L (≈ 37.8 µM)
MCC at 144 h [2]: > 100 µg/mL

Reference: patent EP0060099A1, “Antiviral agents, their preparation and use” (BEECHAM GROUP PLC, priority 1981, dated 1982)
